Earlier results, collected in patent publication US5972639A, “Fluorescence-based assays for measuring cell proliferation” (Irori, priority 1997, dated 1999).

Experiments:
Conditions in all cases: cited from earlier work
[1] = system: Alkaline phosphatase
[2] = system: Acid phosphatase
[3] = target: Alkaline phosphatase (E. coli) (Escherichia coli, UniProt P00634)
Alkaline phosphatase (E. coli), sequence (P00634 22-471): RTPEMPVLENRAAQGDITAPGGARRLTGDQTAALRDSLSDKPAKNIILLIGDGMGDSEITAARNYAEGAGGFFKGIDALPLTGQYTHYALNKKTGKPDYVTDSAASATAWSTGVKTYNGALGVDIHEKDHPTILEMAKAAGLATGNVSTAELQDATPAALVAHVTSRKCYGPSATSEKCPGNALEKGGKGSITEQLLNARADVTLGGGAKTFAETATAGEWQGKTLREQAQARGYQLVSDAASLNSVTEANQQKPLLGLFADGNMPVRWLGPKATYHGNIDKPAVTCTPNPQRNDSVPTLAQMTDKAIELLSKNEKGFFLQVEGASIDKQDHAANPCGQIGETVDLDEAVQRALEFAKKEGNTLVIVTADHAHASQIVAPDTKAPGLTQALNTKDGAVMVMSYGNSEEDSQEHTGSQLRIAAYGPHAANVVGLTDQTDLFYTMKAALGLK

Row | SMILES | Alkaline phosphatase, products identified [1] | Acid phosphatase, products identified [2] | Km [3] [µM]
1 | CC(=O)NCCSP(=O)(O)O [N-Acetylcysteamine S-phosphate] | N-Acetylcysteamine | No cleavage | –
2 | COC(=O)CCSP(=O)(O)O [S-[2-(Methoxy-carboxyl)ehtyl] phosphorothioate] | d, ^32 Pi | No cleavage | –
3 | O=[N+]([O-])c1ccc(OP(=O)(O)O)cc1 [p-NPP, p-nitrophenyl phosphate] | – | – | 94
